Test results from US6740637B1, “Chlorophyll and bacteriochlorophyll derivatives, their preparation and pharmaceutical compositions comprising them” (priority 1998, dated 2004).
Entries after “also recorded” stand apart in the source; their conditions may differ.

How the values were obtained:
M2R mouse melanoma cells = assay: Photodynamic toxicity to melanoma cell monolayer: morphology and Propidium Iodide staining; format: cell-based; settings: 4×10^−6M pigment, 10 min irradiation at 670 nm (light source A), examined 3 h later
Experimental: The photodynamic effect of Chlidea and Chla-L-Ser-OMe conjugate on melanoma cells in culture was tested as follows: M2R mouse melanoma cells as monolayers (to 100% confluence) were treated with the pigments Chla, Chlidea and Chla-L-Ser-OMe for 30 minutes. Subsequently the cultures were irradiated for 10 minutes from the top with a 5mW GaAs diode laser at 670 nm (light source A), a 150W Xenon lamp at 5000 μEinstein/cm^2 (light source B), or a 90W halogen lamp at 1500 μEinstein (light source C). The control groups included untreated cells, pigment- treated cells that were kept in the dark and irradiated untreated cells. Three hours after irradiation, the changes in cell morphology due to irradiation were examined by phase contrast microscopy.
Evaluation of the cytolytic activity of the various Chl and Bchl derivatives was carried out by assessing cell death in the photodynamically treated area of the monolayer by staining of the cells with, and monitoring the red fluorescence of, Propidium Iodide ([2,7-diamino-9-phenyl-10-(diethylamino-propyl)-phenathridinium iodide meth-iodide]) (PID) which is excluded from intact/live cells and selectively accumulates in nuclei of damaged cells. Examination of fluorescing nuclei in the stained culture was done by fluorescence microscopy (Yeh, 1981). […]

[1] = tested on: Propionibacterium Acnes (under aerobic conditions); format: cell-based
Experimental: (§1) 1. Preincubation: Bacteria or viruses were preincubated in the absence (untreated control) or presence of increasing concentration of photosensitizer for 1-2 h at room temperature or 37° C. in the dark.
(§2) 2. Illumination: One set of untreated control and one set of sensitizer treated samples were exposed to light for 5-10 min. An identical group was kept in the dark (dark control).
(§3) 3. Viability: samples of the controls and experimental groups were subjected for quantitation of survival and viability was calculated as per cent of untreated control.
(§4) The light source for illumination was a 250W halogen lamp. The light was focused on a glass support and filtered to eliminate light below 630 nm. The light intensity at the target level was 1500 μEinstein/cm^2. Illumination for Bchl-Ser against S. aureus was performed as described Example 17 herein.
(§5) Stocks of bacteria (S. aureus, B. subtilis, E. coli) were preserved on solid LB agar slants at 4° C. Two hours prior to the experiment, bacteria were transferred to liquid LB media and grown at 37° C. with continuous shaking. P. Acnes (ATCC-CR 6919) bacteria were grown on agar 1053 reinforced clostridial medium (Oxoid CM 149 ) and incubated at 37° C. Culturing was performed in transparent culture jars made anaerobic with a gas generator envelop containing palladium catalyst, (Gas pack Plus Anaerobic system envelopes with Palladium catalyst, Beckton Dickenson Cockesyville Md. 21030 USA) (anaerobic culture) or in the open air (aerobic culture) The bacteria were incubated for 3-4 days before the experiments were carried out.
(§6) Aliquots (20 or 30 μl) of bacterial suspensions were plated on LB agar plates for 24 h at 37° C. ((S. aureus, B. subtilis, E. coli)) or on agar 1053 reinforced clostridial medium (P.acnes). Colonies were counted and per cent viability was calculated from untreated control.
(§7) P. Acnes bacteria at an optical density of A650 nm=0.014 were diluted in PBS to 1:10^−3 and divided into test tubes. Samples of 200 μl were either non treated or incubated with increasing concentration of Chl-Ser. Samples kept in dark were rapped with aluminum foil. All the tubes were placed in the anaerobic jar and incubated for 2 h at 37° C. The anaerobic chamber was placed on the glass support of the light source and samples were illuminated for 5 min. Test tubes with bacteria and sensitizers for the aerobic experiments were left in culture incubator for 2 h and exposed to light for 5 min in the open air. Samples of 20 μl from the anaerobic and aerobic experiments were taken out and spread onto agar plates and culture under anaerobic conditions. After 4 days of anaerobic incubation at 37° C. the colonies formed were counted and per cent viable cells calculated from control. Survival curves were determined based on 6-7 experiments. PDT experiments performed on S. Aureus with Bchl-Ser were conducted as described in Example 17 herein.

[2] = tested on: Propionibacterium Acnes (under anaerobic conditions); format: cell-based
Experimental: as §1, §2, §3, §4, §5, §6, §7

[3] = tested on: Herpes simplex virus-1 (HSV-1) (in free suspension); assay: PDT of HSV-1 in suspension, plaque assay; format: cell-based, Herpes simplex virus type 1
Experimental: For viral infection Vero cells (2×10^4/well) were cultured at 37° C. for 2 days in 24 well microplates. The culture medium was replaced with fresh medium containing 2% FBS and the cells infected with HSV-1 (200 μl) at multiplicity of infection (MOI) of 1-3. The cells were further incubated at 37° C. for 3 days. The medium was collected and centrifuged for 5 min in a clinical centrifuge to remove cells and cell debris. The concentration of viral particle was determined as described below and the suspension was aliquoted and kept at −80° C. until used.
Vero cells were inoculated with 10 fold dilutions of HSV-1 and cultured for 2 h at 37° C. The medium was then replaced with fresh DMEM containing 2% FBS and 0.7% methylcellulose and the cells were further incubated for 3 days. The overlayer was then decanted and the cells fixed and stained with crystal violet. Virus induced plaques were manually counted and plaque forming units (PFU/ml) were calculated.
HSV-1 suspended in culture medium to a concentration of 2×10^6 PFU/ml was dispensed (0.5 ml/well) into 24 well microplates and incubated in the dark for 1 h at 37° C. in the absence or presence of the indicated Chl-Ser concentrations. The experimental groups were then exposed to light for 10 min. The appropriate controls described above were included in each experiment. Viral survival was quantitated as described above.

C=Cc1c(C)c2cc3nc(c4c5[n-]c(cc6nc(cc1[n-]2)C(C)=C6CC)c(C)c5C(=O)[C@@H]4C(=O)OC)[C@@H](CCC(=O)OC[C@H](N)C(=O)OC)[C@@H]3C.[Mg+2] [Chla-L-Ser-OMe, L-seryl Methyl Ester Chlorophyllidea]
cell damage: morphology and PID labeling after irradiation (M2R mouse melanoma cells): cell damage was confined to the photodynamically treated area; also recorded: all the remaining damaged cells in area (A) became PID labeled
colony counts with sensitizer alone in dark [1]: not different from those of untreated samples
LD50 ([1]; aerobic conditions, light 5 min): 10 nM
phototoxicity in the presence of light ([1]; concentration range of 0.1 to 1×10^−7M, aerobic): dose dependent phototoxicity
colony counts with sensitizer alone in dark [2]: not different from those of untreated samples
LD50 ([2]; anaerobic conditions, light 5 min): 30 nM
phototoxicity in the presence of light ([2]; concentration range of 0.1 to 1×10^−7M, anaerobic): dose dependent phototoxicity
concentration of maximal toxicity [3]: > 20 nM
EC50 ([3]; 1 h with Chl-Ser, light 10 min, read-out: half maximal dose of sensitizer): ~10 nM
toxicity in the dark ([3]; tested concentration range, dark): not toxic in the dark
